Assay results as given in PMC5034043 (The Journal of Biological Chemistry, 2016).
Read-outs that look alike come from different tables or passages of the source.

System: T1, synaptosomal proteome
T1 construct: from tissue; host or cells: brain synaptosomes of male C57/B6 mice
Format: binding, mouse
Protocol: Synaptosomes were resuspended to 1 mg of protein/ml in HEPES buffer medium (in mM: 140 NaCl, 5 KCl, 5 NaHCO3, 1.2 NaH2PO4, 1 MgCl2, 10 glucose, and 10 HEPES (pH 7.4)). […] The samples were allowed to equilibrate for 5 min before being transferred to a parafilm-sealed 1-mm path length quartz cuvette. The sample was then irradiated for 20 min at a peak bandwidth of 350 nm (Rayonet RPR-3500 lamp) ∼6 cm from the light source. Non-irradiated samples were left in the dark at ambient temperature (22–25 °C) for 20 min. All remaining procedures were conducted with restricted light exposure.
To 750 μg of photolabeled or control synaptosome samples, 40 μl of 10% SDS and 2 μl of 5 mM DTT in water were added. Samples were then vortexed, heated for 10 min at 65 °C, and then briefly cooled. Final concentrations of 150 μM azide-biotin (Click Chemistry Tools), 2 mM tris(3-hydroxypropyltriazolylmethyl)amine (Sigma), 1 mM ascorbic acid (Sigma), and 1 mM CuSO4·5H2O (Sigma) were added to each sample and vortexed vigorously. The samples were left in the dark at ambient temperature (22–25 °C) for 1 h with mild agitation. Directly to each sample 4× volume chilled methanol, 1.5× chilled chloroform, and 3× chilled double distilled H2O were added. Samples were vortexed vigorously and centrifuged at 1,400 × g for 30 min at 4 °C. Both liquid layers were carefully removed, and the protein pellet was washed with 2 ml of 1:1 (v/v) chilled methanol/chloroform. Samples were centrifuged at 3,500 × g for 30 min at 4 °C. Protein pellets were briefly air-dried before further processing.
750 μg of biotin-conjugated protein sample was resuspended in 500 μl of 25 mM NH4HCO3 and 6 M urea in water. Next, 150 μl of 5% Triton X-100 in water, 50 μl of 10% SDS in water, and 1.5 μl of 0.5 M DTT were added. The samples were heated for 15 min at 65 °C. After briefly cooling, 14 μl of 0.5 M iodoacetamide in water was added, and the sample was left in the dark for 45 min. […] The supernatant was diluted to 4 ml with PBS, and 2 ml of PBS containing 100 μl of 50% streptavidin-agarose resin (Thermo Scientific) was added. Biotinylated proteins within the sample were captured over resin overnight at 4 °C with mild agitation. The resin was first washed with 6 ml of 1% SDS in PBS, and then 7 ml of 0.1 M urea in PBS followed by 10 ml of PBS. The resin underwent a final wash with 0.9 ml of 50 mM Tris-HCl and 1 mM CaCl2 in water (pH 8.0) and then resuspended in 200 μl of 50 mM Tris-HCl, 1 mM CaCl2 in water (pH 8.0), and 2 μg of porcine sequencing grade trypsin (Promega). Samples were digested overnight at 37 °C. Samples were then centrifuged at 2,000 × g for 4 min, and digest supernatant was decanted. Beads were washed in 100 μl of PBS centrifuged at 5,200 × g for 5 min, and the wash was combined with the digest supernatant. To the combined sample, trifluoroacetic acid (TFA) was added to 0.4% (v/v) or until pH <2. The sample was desalted with Oasis C18 10-mg columns (Waters) as described previously ([66]). The eluted sample was dried by speed vac and resuspended in 0.1 M HEPES buffer (pH 8.5). […] Appropriate corresponding TMTsixplex^TM-labeled samples were pooled and dried by speed vac. The combined samples were resuspended in 0.5% acetic acid in water and pH-corrected with acetic acid until pH was <2. 40 μg of protein was desalted with C18 stage tips prepared in-house and dried by speed vac.
Samples were resuspended in 10 mM KH2PO4 (pH 2.6), 30% acetonitrile (v/v) in water, and fractionated by off-line strong cation exchange chromatography prior to mass spectrometry (MS) analysis similar to as reported previously ([66]). The full synaptosome proteome control was prepared similarly without TMTsixplex^TM labeling.
All TMT samples were analyzed with three-stage mass spectrometry (MS3) TMTsixplex^TM quantification workflow as described previously ([34]).

[1] = protein A2AGI3 Neuroligin-3 (Nlgn3)
[2] = protein A2AWI7 Endophilin-B2 (Sh3glb2)
[3] = protein D3Z5T2 Armadillo repeat-containing protein 10 (Armc10)
[4] = protein E9Q3V6 Septin-2 (Sept2)
[5] = protein F7C846 Metaxin-1 (Mtx1)
[6] = protein F8WGD9 1-acyl-sn-glycerol-3-phosphate acyltransferase epsilon (Agpat5)
[7] = protein G3UYZ1 Immunoglobulin superfamily member 8 (Igsf8)
[8] = protein G5E829 Plasma membrane calcium-transporting ATPase 1 (Atp2b1)
[9] = protein O09111 NADH dehydrogenase [ubiquinone] 1 beta subcomplex subunit 11, mitochondrial (Ndufb11)
[10] = protein O35114 Lysosome membrane protein 2 (Scarb2)
[11] = protein O35526 Syntaxin-1A (Stx1a)
[12] = protein O35874 Neutral amino acid transporter A (Slc1a4)

C#CCOCc1ccc(C2(C(F)(F)F)N=N2)cc1O [AziPm-click (1), 2-((prop-2-yn-1-yloxy)methyl)-5-(3-(trifluoromethyl)-3H-diazirin-3-yl)phenol]
Log2( Mean 'UV/ No UV') (B1AU25 Aifm1): 4.01 | TMT Ratio Mean 'UV/ No UV' (B1AU25 Aifm1): 16.13 | Log2( Mean 'UV/ No UV') (O35633-2 Slc32a1): 4.34 | Log2( Mean 'UV/ No UV') (O35678 Mgll): 4.63 | TMT Ratio Mean 'UV/ No UV' (O35678 Mgll): 24.71 | Log2( Mean 'UV/ No UV') (P07724 Alb): 4.39 | TMT Ratio Mean 'UV/ No UV' (P07724 Alb): 20.95 | Log2( Mean 'UV/ No UV') (P08226 Apoe): 3.80 | TMT Ratio Mean 'UV/ No UV' (P08226 Apoe): 13.94 | Log2( Mean 'UV/ No UV') (P17665 Cox7c): 4.31 | TMT Ratio Mean 'UV/ No UV' (P17665 Cox7c): 19.82 | Log2( Mean 'UV/ No UV') (P19157 Gstp1): 3.61 | TMT Ratio Mean 'UV/ No UV' (P19157 Gstp1): 12.21 | Log2( Mean 'UV/ No UV') (P23242 Gja1): 3.58 | TMT Ratio Mean 'UV/ No UV' (P23242 Gja1): 11.95 | Log2( Mean 'UV/ No UV') (P31648 Slc6a1): 4.60 | TMT Ratio Mean 'UV/ No UV' (P31648 Slc6a1): 24.21 | Log2( Mean 'UV/ No UV') (P35279 Rab6a): 3.67 | TMT Ratio Mean 'UV/ No UV' (P35279 Rab6a): 12.71 | Log2( Mean 'UV/ No UV') (P40237 Cd82): 3.95 | TMT Ratio Mean 'UV/ No UV' (P40237 Cd82): 15.49 | Log2( Mean 'UV/ No UV') (P42125 Eci1): 4.01 | TMT Ratio Mean 'UV/ No UV' (P42125 Eci1): 16.13 | Log2( Mean 'UV/ No UV') (P51150 Rab7a): 3.54 | TMT Ratio Mean 'UV/ No UV' (P51150 Rab7a): 11.65 | Log2( Mean 'UV/ No UV') (P60879-2 Snap25): 4.57 | Log2( Mean 'UV/ No UV') (P61294 Rab6b): 3.78 | TMT Ratio Mean 'UV/ No UV' (P61294 Rab6b): 13.75 | Log2( Mean 'UV/ No UV') (P61620 Sec61a1): 4.06 | TMT Ratio Mean 'UV/ No UV' (P61620 Sec61a1): 16.63 | Log2( Mean 'UV/ No UV') (P63011 Rab3a): 3.83 | TMT Ratio Mean 'UV/ No UV' (P63011 Rab3a): 14.19 | Log2( Mean 'UV/ No UV') (P63037 Dnaja1): 3.64 | TMT Ratio Mean 'UV/ No UV' (P63037 Dnaja1): 12.46 | Log2( Mean 'UV/ No UV') (P63213 Gng2): 3.65 | TMT Ratio Mean 'UV/ No UV' (P63213 Gng2): 12.51 | Log2( Mean 'UV/ No UV') (Q5ICG5 Acsl6): 3.88 | TMT Ratio Mean 'UV/ No UV' (Q5ICG5 Acsl6): 14.71 | Log2( Mean 'UV/ No UV') (Q5SW88 Rab1): 3.58 | TMT Ratio Mean 'UV/ No UV' (Q5SW88 Rab1): 11.95 | Log2( Mean 'UV/ No UV') (Q8BXV2 Bri3bp): 3.89 | TMT Ratio Mean 'UV/ No UV' (Q8BXV2 Bri3bp): 14.84 | Log2( Mean 'UV/ No UV') (Q8C3X2 Ccdc90b): 4.00 | TMT Ratio Mean 'UV/ No UV' (Q8C3X2 Ccdc90b): 16.04 | Log2( Mean 'UV/ No UV') (Q8K4X7 Agpat4): 4.25 | TMT Ratio Mean 'UV/ No UV' (Q8K4X7 Agpat4): 18.96 | Log2( Mean 'UV/ No UV') (Q8R5J9 Arl6ip5): 4.56 | TMT Ratio Mean 'UV/ No UV' (Q8R5J9 Arl6ip5): 23.65 | Log2( Mean 'UV/ No UV') (Q9CXJ4 Abcb8): 3.93 | TMT Ratio Mean 'UV/ No UV' (Q9CXJ4 Abcb8): 15.28 | Log2( Mean 'UV/ No UV') (Q9CZS1 Aldh1b1): 4.40 | TMT Ratio Mean 'UV/ No UV' (Q9CZS1 Aldh1b1): 21.11 | Log2( Mean 'UV/ No UV') (Q9CZT8 Rab3b): 3.73 | TMT Ratio Mean 'UV/ No UV' (Q9CZT8 Rab3b): 13.26 | Log2( Mean 'UV/ No UV') (Q9D5T0 Atad1): 3.65 | TMT Ratio Mean 'UV/ No UV' (Q9D5T0 Atad1): 12.57 | Log2( Mean 'UV/ No UV') (Q9EP69 Sacm1l): 4.04 | TMT Ratio Mean 'UV/ No UV' (Q9EP69 Sacm1l): 16.45 | Log2( Mean 'UV/ No UV') (Q9ER00 Stx12): 3.85 | TMT Ratio Mean 'UV/ No UV' (Q9ER00 Stx12): 14.40 | Log2( Mean 'UV/ No UV') (Q9Z2I0 Letm1): 4.32 | TMT Ratio Mean 'UV/ No UV' (Q9Z2I0 Letm1): 19.93 | Log2( Mean 'UV/ No UV') (Q80ZW2 Them6): 4.50 | TMT Ratio Mean 'UV/ No UV' (Q80ZW2 Them6): 22.62 | Log2( Mean 'UV/ No UV') (Q99JY8 Ppap2b): 4.16 | TMT Ratio Mean 'UV/ No UV' (Q99JY8 Ppap2b): 17.86 | Log2( Mean 'UV/ No UV') (Q00915 Rbp1): 4.46 | TMT Ratio Mean 'UV/ No UV' (Q00915 Rbp1): 22.07 | Log2( Mean 'UV/ No UV') (Q60771 Cldn11): 4.48 | TMT Ratio Mean 'UV/ No UV' (Q60771 Cldn11): 22.33 | Log2( Mean 'UV/ No UV') [1]: 3.89 | TMT Ratio Mean 'UV/ No UV' [1]: 14.80 | Log2( Mean 'UV/ No UV') [2]: 3.55 | TMT Ratio Mean 'UV/ No UV' [2]: 11.67 | Log2( Mean 'UV/ No UV') [3]: 3.94 | TMT Ratio Mean 'UV/ No UV' [3]: 15.34 | Log2( Mean 'UV/ No UV') [4]: 4.02 | TMT Ratio Mean 'UV/ No UV' [4]: 16.25 | Log2( Mean 'UV/ No UV') [5]: 4.31 | TMT Ratio Mean 'UV/ No UV' [5]: 19.87 | Log2( Mean 'UV/ No UV') [6]: 4.62 | TMT Ratio Mean 'UV/ No UV' [6]: 24.62 | Log2( Mean 'UV/ No UV') [7]: 3.89 | TMT Ratio Mean 'UV/ No UV' [7]: 14.81 | Log2( Mean 'UV/ No UV') [8]: 3.59 | TMT Ratio Mean 'UV/ No UV' [8]: 12.05 | Log2( Mean 'UV/ No UV') [9]: 3.68 | TMT Ratio Mean 'UV/ No UV' [9]: 12.78 | Log2( Mean 'UV/ No UV') [10]: 4.27 | TMT Ratio Mean 'UV/ No UV' [10]: 19.35 | Log2( Mean 'UV/ No UV') [11]: 3.50 | TMT Ratio Mean 'UV/ No UV' [11]: 11.31 | Log2( Mean 'UV/ No UV') [12]: 4.57 | TMT Ratio Mean 'UV/ No UV' [12]: 23.78 | Log2( Mean 'UV/ No UV') (protein O35963 Ras-related protein Rab-33B (Rab33b)): 4.02
